Patent US20230295200A1 (REGENTS OF THE UNIVERSITY OF MICHIGAN, priority 2022, published 2023)
pKi: −log10 of the molar value.

Key:
STAT6 protein = molecular target: T1, STAT6 protein (Homo sapiens, UniProt P42226); assay: Fluorescence polarization (FP) binding assay, STAT6; details: FP competition, 5 nM fluorescein-labeled tracer, 200 nM protein, PBS pH7.4; read-out: Binding STAT6
T1 sequence (P42226 1-847): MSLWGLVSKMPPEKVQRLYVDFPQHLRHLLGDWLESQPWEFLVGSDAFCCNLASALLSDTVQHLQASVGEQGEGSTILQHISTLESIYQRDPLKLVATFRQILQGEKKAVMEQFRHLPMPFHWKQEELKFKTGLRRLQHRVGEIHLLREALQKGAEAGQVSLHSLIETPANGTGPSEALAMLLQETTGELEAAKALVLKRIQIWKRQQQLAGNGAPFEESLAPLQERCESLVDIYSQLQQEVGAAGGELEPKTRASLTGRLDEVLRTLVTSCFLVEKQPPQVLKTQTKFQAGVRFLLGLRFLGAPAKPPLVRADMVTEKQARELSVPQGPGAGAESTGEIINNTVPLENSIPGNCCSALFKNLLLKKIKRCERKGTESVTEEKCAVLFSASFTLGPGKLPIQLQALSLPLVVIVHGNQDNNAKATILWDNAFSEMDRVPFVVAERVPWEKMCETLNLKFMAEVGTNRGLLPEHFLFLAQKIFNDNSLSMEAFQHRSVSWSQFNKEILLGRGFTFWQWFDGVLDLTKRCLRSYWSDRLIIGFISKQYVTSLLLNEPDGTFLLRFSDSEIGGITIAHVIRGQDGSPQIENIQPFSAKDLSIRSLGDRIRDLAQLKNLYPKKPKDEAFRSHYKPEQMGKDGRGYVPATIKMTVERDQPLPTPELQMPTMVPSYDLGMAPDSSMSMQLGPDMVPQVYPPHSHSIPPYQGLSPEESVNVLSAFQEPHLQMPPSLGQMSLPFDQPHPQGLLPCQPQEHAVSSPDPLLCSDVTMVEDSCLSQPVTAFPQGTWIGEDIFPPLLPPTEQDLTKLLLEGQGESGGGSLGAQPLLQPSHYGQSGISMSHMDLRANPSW
In short: (§1)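 Fluorescence polarization is read after STAT5 or STAT6 protein (200 nM) and a fluorescein-labeled tracer (5 nM) equilibrate for 1 h at room temperature in DTT-containing PBS pH 7.4 with BGG and Tween-20. Inhibition constants are obtained by nonlinear curve fitting.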

STAT5A = molecular target: T2, STAT5A (Homo sapiens, UniProt P42229); assay: Fluorescence polarization (FP) binding assay, STAT5A; details: FP competition, 5 nM fluorescein-labeled tracer, 200 nM protein, PBS pH7.4
T2 sequence (P42229 1-794): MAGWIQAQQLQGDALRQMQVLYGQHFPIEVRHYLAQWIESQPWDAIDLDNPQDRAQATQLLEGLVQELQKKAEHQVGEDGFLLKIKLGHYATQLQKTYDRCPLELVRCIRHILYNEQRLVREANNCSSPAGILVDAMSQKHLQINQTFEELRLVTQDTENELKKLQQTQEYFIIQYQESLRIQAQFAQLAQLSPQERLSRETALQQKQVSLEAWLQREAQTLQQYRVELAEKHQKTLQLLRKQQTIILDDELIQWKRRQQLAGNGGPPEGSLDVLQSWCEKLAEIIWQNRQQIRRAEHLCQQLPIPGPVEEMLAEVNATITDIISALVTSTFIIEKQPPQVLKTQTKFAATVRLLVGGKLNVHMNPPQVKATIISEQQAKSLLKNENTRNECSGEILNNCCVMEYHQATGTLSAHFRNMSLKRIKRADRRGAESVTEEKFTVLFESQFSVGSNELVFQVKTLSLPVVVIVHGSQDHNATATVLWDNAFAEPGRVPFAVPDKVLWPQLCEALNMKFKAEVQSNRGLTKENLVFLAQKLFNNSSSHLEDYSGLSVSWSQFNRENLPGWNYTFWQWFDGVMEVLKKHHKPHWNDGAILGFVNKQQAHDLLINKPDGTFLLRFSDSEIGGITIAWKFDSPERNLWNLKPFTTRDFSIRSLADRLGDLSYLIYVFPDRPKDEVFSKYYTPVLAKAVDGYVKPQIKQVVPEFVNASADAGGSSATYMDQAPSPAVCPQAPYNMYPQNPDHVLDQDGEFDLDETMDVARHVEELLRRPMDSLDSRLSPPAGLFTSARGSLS
In short: as §1

pKi (STAT6 protein)	pKi (STAT5A)	SMILES
< 5.00	< 5.00	CCCCC(=O)N1CC[C@@H]2CN(C(=O)[C@@H]3CCCN3C(=O)[C@@H](NC(=O)c3cc4cc(C(F)(F)P(=O)(O)O)ccc4s3)C(C)(C)C)C[C@@H]21 [Compound 88, ((2-(((S)-3,3-dimethyl-1-oxo-1-((S)-2-((3aR,6aR)-1-pentanoyloctahydropyrrolo[3,4-b]pyrrole-5-carbonyl)pyrrolidin-1-yl)butan-2-yl)carbamoyl)benzo[b]thiophen-5-yl)difluoromethyl)phosphonic acid]
5.00 to 6.00	< 5.00	CC(=O)N1CC[C@H]2CC[C@@H](C(=O)N3CCOC[C@@H]3c3ccccc3)N2C(=O)[C@@H](NC(=O)c2cc3cc(C(F)(F)P(=O)(O)O)ccc3s2)C1 [Compound 120, ((2-(((5S,8S,10aR)-3-acetyl-6-oxo-8-((S)-3-phenylmorpholine-4-carbonyl)decahydropyrrolo[1,2-a][1,5]diazocin-5-yl)carbamoyl)benzo[b]thiophen-5-yl)difluoromethyl)phosphonic acid]
5.00 to 6.00	< 5.00	CN(Cc1ccc(Br)cc1)C(=O)[C@@H]1CCCN1C(=O)[C@@H](NC(=O)c1cc2cc(C(F)(F)P(=O)(O)O)ccc2s1)C(C)(C)C [Compound 74, ((2-(((S)-1-((S)-2-((4-bromobenzyl)(methyl)carbamoyl)pyrrolidin-1-yl)-3,3-dimethyl-1-oxobutan-2-yl)carbamoyl)benzo[b]thiophen-5-yl)difluoromethyl)phosphonic acid]
< 5.00	< 5.00	CC(C)(C)[C@H](NC(=O)c1cc2cc(C(F)(F)P(=O)(O)O)ccc2s1)C(=O)N1Cc2ccccc2C[C@H]1C(=O)N1CCOC(c2ccccn2)C1 (stereo partly drawn) [Compound 216, ((2-(((2S)-3,3-dimethyl-1-oxo-1-((3S)-3-(2-(pyridin-2-yl)morpholine-4-carbonyl)-3,4-dihydroisoquinolin-2(1H)-yl)butan-2-yl)carbamoyl)benzo[b]thiophen-5-yl)difluoromethyl)phosphonic acid]
6.00 to 7.00	5.00 to 6.00	CCC(CC)[C@H](NC(=O)c1cc2cc(C(F)(F)P(=O)(O)O)ccc2s1)C(=O)N1CCC[C@H]1C(=O)N1CCO[C@H](c2ccccc2)C1 [Compound 144, ((2-(((S)-3-ethyl-1-oxo-1-((S)-2-((R)-2-phenylmorpholine-4-carbonyl)pyrrolidin-1-yl)pentan-2-yl)carbamoyl)benzo[b]thiophen-5-yl)difluoromethyl)phosphonic acid]
< 5.00	< 5.00	CC(C)(C)[C@H](NC(=O)c1cc2cc(C(F)(F)P(=O)(O)O)ccc2s1)C(=O)N1CCC[C@H]1C(=O)N1CC[C@@H]2CN(C(=O)c3ccc(F)cc3)C[C@@H]21 [Compound 86, (difluoro(2-(((S)-1-((S)-2-((3aR,6aR)-5-(4-fluorobenzoyl)octahydropyrrolo[3,4-b]pyrrole-1-carbonyl)pyrrolidin-1-yl)-3,3-dimethyl-1-oxobutan-2-yl)carbamoyl)benzo[b]thiophen-5-yl)methyl)phosphonic acid]
6.00 to 7.00	5.00 to 6.00	CC(C)(C)[C@H](NC(=O)c1cc2cc(C(F)(F)P(=O)(O)O)ccc2s1)C(=O)N1CCC[C@H]1C(=O)N1CCOC(c2cccs2)C1 (stereo partly drawn) [Compound 127, ((2-(((2S)-3,3-dimethyl-1-oxo-1-((2S)-2-(2-(thiophen-2-yl)morpholine-4-carbonyl)pyrrolidin-1-yl)butan-2-yl)carbamoyl)benzo[b]thiophen-5-yl)difluoromethyl)phosphonic acid]
5.00 to 6.00	< 5.00	CC(C)(C)[C@H](NC(=O)c1cc2cc(C(F)(F)P(=O)(O)O)ccc2s1)C(=O)N1CCC[C@H]1C(=O)N1CCC2(CCCCC2)C1 [Compound 61, ((2-(((S)-1-((S)-2-(2-azaspiro[4.5]decane-2-carbonyl)pyrrolidin-1-yl)-3,3-dimethyl-1-oxobutan-2-yl)carbamoyl)benzo[b]thiophen-5-yl)difluoromethyl)phosphonic acid]
5.00 to 6.00	< 5.00	CC1(c2ccc(F)cc2)CN(C(=O)[C@@H]2CCCN2C(=O)[C@@H](NC(=O)c2cc3cc(C(F)(F)P(=O)(O)O)ccc3s2)C(C)(C)C)CCO1 (stereo partly drawn) [Compound 100, (difluoro(2-(((2S)-1-((2S)-2-(2-(4-fluorophenyl)-2-methylmorpholine-4-carbonyl)pyrrolidin-1-yl)-3,3-dimethyl-1-oxobutan-2-yl)carbamoyl)benzo[b]thiophen-5-yl)methyl)phosphonic acid]
< 5.00	< 5.00	CC(C)(C)[C@H](NC(=O)c1cc2cc(C(F)(F)P(=O)(O)O)ccc2s1)C(=O)N1CCCC[C@H]1C(=O)N1Cc2ccccc2C1 [Compound 181, (difluoro(2-(((S)-1-((S)-2-(isoindoline-2-carbonyl)piperidin-1-yl)-3,3-dimethyl-1-oxobutan-2-yl)carbamoyl)benzo[b]thiophen-5-yl)methyl)phosphonic acid]
5.00 to 6.00	< 5.00	CC(C)(C)[C@H](NC(=O)c1cc2cc(C(F)(F)P(=O)(O)O)ccc2s1)C(=O)N1Cc2ccccc2[C@H]1C(=O)N1CC[C@H](c2ccccc2)C1 [Compound 197, ((2-(((S)-3,3-dimethyl-1-oxo-1-((S)-1-((R)-3-phenylpyrrolidine-1-carbonyl)isoindolin-2-yl)butan-2-yl)carbamoyl)benzo[b]thiophen-5-yl)difluoromethyl)phosphonic acid]
5.00 to 6.00	< 5.00	CC(C)(O)[C@H](NC(=O)c1cc2cc(C(F)(F)P(=O)(O)O)ccc2s1)C(=O)N1CCC[C@H]1C(=O)N1CCO[C@@H](c2ccccc2)C1 [Compound 156, (difluoro(2-(((S)-3-hydroxy-3-methyl-1-oxo-1-((S)-2-((S)-2-phenylmorpholine-4-carbonyl)pyrrolidin-1-yl)butan-2-yl)carbamoyl)benzo[b]thiophen-5-yl)methyl)phosphonic acid]
5.00 to 6.00	< 5.00	CC(=O)N1CC[C@H]2CC[C@@H](C(=O)N3CCOC(c4cc(F)c(Cl)cc4Cl)C3)N2C(=O)[C@@H](NC(=O)c2cc3cc(C(F)(F)P(=O)(O)O)ccc3s2)C1 (stereo partly drawn) [Compound 163, ((2-(((5S,8S,10aR)-3-acetyl-8-(2-(2,4-dichloro-5-fluorophenyl)morpholine-4-carbonyl)-6-oxodecahydropyrrolo[1,2-a][1,5]diazocin-5-yl)carbamoyl)benzo[b]thiophen-5-yl)difluoromethyl)phosphonic acid]
6.00 to 7.00	5.00 to 6.00	CC(=O)N1CCN(C(=O)[C@@H](NC(=O)c2cc3cc(C(F)(F)P(=O)(O)O)ccc3s2)C(C)(C)C)[C@H](C(=O)N2CCO[C@H](c3ccccc3)C2)C1 [Compound 170, ((2-(((S)-1-((S)-4-acetyl-2-((R)-2-phenylmorpholine-4-carbonyl)piperazin-1-yl)-3,3-dimethyl-1-oxobutan-2-yl)carbamoyl)benzo[b]thiophen-5-yl)difluoromethyl)phosphonic acid]
5.00 to 6.00	< 5.00	CC(=O)N1CCN(C(=O)[C@@H]2CCCN2C(=O)[C@@H](NC(=O)c2cc3cc(C(F)(F)P(=O)(O)O)ccc3s2)C(C)(C)C)C[C@H]1c1ccccc1 [Compound 166, ((2-(((S)-1-((S)-2-((R)-4-acetyl-3-phenylpiperazine-1-carbonyl)pyrrolidin-1-yl)-3,3-dimethyl-1-oxobutan-2-yl)carbamoyl)benzo[b]thiophen-5-yl)difluoromethyl)phosphonic acid]
